Values of other authors as cited in US12396965B2, “Putrescine topical barrier formulation” (VIVIER CANADA INC., priority 2017, dated 2025).

Tests used:
[1] = target: fibroblast tissue transglutaminase (Homo sapiens, UniProt P21980); conditions: in vitro and in vivo; topical; compared to controls
epidermis of eroded skin = conditions: animals and human, topical

Sequence of fibroblast tissue transglutaminase (P21980 whole entry): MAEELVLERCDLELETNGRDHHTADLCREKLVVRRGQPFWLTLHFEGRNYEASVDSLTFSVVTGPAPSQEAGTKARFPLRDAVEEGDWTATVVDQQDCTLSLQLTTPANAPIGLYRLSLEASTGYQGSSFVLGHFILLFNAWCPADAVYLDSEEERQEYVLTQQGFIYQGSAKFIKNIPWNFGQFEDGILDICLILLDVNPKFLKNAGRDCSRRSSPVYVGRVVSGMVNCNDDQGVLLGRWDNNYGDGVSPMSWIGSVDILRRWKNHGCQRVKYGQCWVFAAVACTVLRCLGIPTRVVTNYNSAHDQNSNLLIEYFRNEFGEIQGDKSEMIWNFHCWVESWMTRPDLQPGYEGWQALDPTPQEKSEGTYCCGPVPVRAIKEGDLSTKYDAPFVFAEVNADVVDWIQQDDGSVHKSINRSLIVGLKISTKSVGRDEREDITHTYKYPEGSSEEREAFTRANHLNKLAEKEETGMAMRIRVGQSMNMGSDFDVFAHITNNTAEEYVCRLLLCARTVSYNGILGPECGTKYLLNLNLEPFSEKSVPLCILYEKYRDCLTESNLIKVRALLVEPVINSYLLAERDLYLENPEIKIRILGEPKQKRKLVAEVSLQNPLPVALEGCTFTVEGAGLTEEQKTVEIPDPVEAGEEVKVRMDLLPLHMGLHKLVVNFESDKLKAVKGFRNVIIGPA

In the case of NCCCCN [Putrescine, 1,4-diaminobutane], the collagen cross-linking [1] is given as “reduce collagen cross-linking” and the “barrier function of the epidermis and thickness of the stratum lucidum / inner strata of human epidermis” value (epidermis of eroded skin) is given as “increasing its barrier function as well as the thickness of the stratum lucidum”.
